Laboratory results published in patent US20200155609A1, “COMPOSITIONS AND METHODS OF MAKING EXPANDED HEMATOPOIETIC STEM CELLS USING PTEN INHIBITORS” (Transfusion Health LLC, priority 2017, published 2020).

Tests used:
[1] = system: CD34+ cells isolated from donor non-mobilized peripheral blood (CD133+ and CD90+ cells); test: Relative expansive effect of SF1670 derivatives, fold change days 2 to 7, non-mobilized peripheral blood CD34+ cells (Example 21); assay type: cell-based, human; conditions: fold change days 2 to 7 normalized to basic and +SF (500 nM SF1670) controls
Method: CD34+ cells were isolated from donor peripheral blood as described in Example 20. Isolated CD34+ cells were incubated in an in vitro culture media of Alpha MEM without phenol red, 10% (v/v) heat inactivated fetal bovine serum (FBS). When testing the substituted derivatives of 9,10-dihydrophenathrene and phenanthrene (+Derivative conditions), two internal controls were used: a positive control (+SF conditions) and a baseline control (i.e, basic conditions (“cytokines only”)). The media components and concentrations used for the compounds tested are described in Table 6. The culture also included an antibiotic solution that includes penicillin, streptomycin, and amphotericin B to avoid contamination. Controls were included because the amount of expansion in samples obtained varies from individual to individual.
(§1) Cultures were incubated at 3% oxygen (controlled by nitrogen) and 5% CO2.
Small molecule components were added separately and fresh each time the media needs to be refreshed. Cytokines can be stored together. Media renewal should occur at least every few days.
On the days indicated one-half of the volume of the cell culture was removed for data analysis (flow cytometry using a BD FACS ARIA II). The culture volume was replenished with fresh media according to the conditions tested. The data reported accounts for the dilution factor introduced in this procedure.
Separate experiments were performed for each compound tested (Compound 1.001-1.012).
Table 7, below, summarizes the relative expansive effect of Compound 1.001 to 1.012 (sample compounds) at the indicated concentration. The data in Table 7 is reported as the relative expansive effect. The relative expansive effect is a normalized value of the fold changes shown in each of the figures. It is calculated as shown below: […]

[2] = system: CD34+ cells isolated from donor non-mobilized peripheral blood (CD133+ and CD90+ cells); test: Relative expansive effect (relative cell number) of SF1670 derivatives, non-mobilized peripheral blood CD34+ cells, cytokines with IL-6 (Example 22); assay type: cell-based, human
Method: CD34+ cells were isolated from donor peripheral blood as described in Example 20. Isolated CD34+ cells were incubated in an in vitro culture media of Alpha MEM without phenol red, 10% (v/v) heat inactivated fetal bovine serum (FBS). When testing the substituted derivatives of 9,10-dihydrophenathrene (+Derivative conditions), two internal controls were used: a positive control (+SF conditions) and a baseline control (i.e, basic conditions (“cytokines only”)). The media components and concentrations used for the compounds tested are described in Table 8. The culture also included an antibiotic solution that includes penicillin, streptomycin, and amphotericin B to avoid contamination. Controls were included because the amount of expansion in samples obtained varies from individual to individual.
as §1
After the indicated number of days one-half of the volume of the cell culture was removed for data analysis (flow cytometry using a BD FACS ARIA II). The culture volume was replenished with fresh media according to the conditions tested.
Separate experiments were performed for each compound tested (Compound 1.014-1.016).
Table 9, below, summarizes the relative expansive effect of Compound 1.014 to 1.016 (sample compounds) at the indicated concentration. The data in Table 9 is reported as the relative cell number. The relative cell number is the normalized value of cell counts after the indicated number of days in culture. It is calculated as shown below: […]

[3] = 7 days in culture, 1 μM sample compound
[4] = 7 days in culture, 2 μM sample compound
[5] = 5 days in culture, 0.25 μM sample compound

Structure (SMILES): CC(C)(C)NC(=O)c1ccc2c(c1)C(=O)C(=O)c1ccccc1-2 [Compound 1.001, N-(tert-butyl)-9,10-dioxo-9,10-dihydrophenanthrene-2-carboxamide]
- CD90 effect (relative expansive effect of CD90+ cells) ([1]; 0.5 μM sample compound): ++ (0.2 ≤ x < 0.55)
- CD133 effect (relative expansive effect of CD133+ cells) ([1]; 0.5 μM sample compound): + (x < 0.2)

Structure (SMILES): CC(C)(C)C(=O)CNc1ccc2c(c1)C(=O)C(=O)c1ccccc1-2 [Compound 1.002, 2-((3,3-dimethyl-2-oxobutyl)amino)phenanthrene-9,10-dione]
- CD90 effect (relative expansive effect of CD90+ cells) ([1]; 1 μM sample compound): ++ (0.2 ≤ x < 0.55)
- CD133 effect (relative expansive effect of CD133+ cells) ([1]; 1 μM sample compound): + (x < 0.2)

Structure (SMILES): Nc1ccc2c(c1)C(=O)C(=O)c1cc(NC(=O)CC(=O)O)ccc1-2 [Compound 1.003, 3-((7-amino-9,10-dioxo-9,10-dihydrophenanthren-2-yl)amino)-3-oxopropanoic acid]
- CD90 effect (relative expansive effect of CD90+ cells) ([1]; 0.125 μM sample compound): ++ (0.2 ≤ x < 0.55)
- CD133 effect (relative expansive effect of CD133+ cells) ([1]; 0.125 μM sample compound): + (x < 0.2)

Structure (SMILES): CC(C)(C)CC(=O)Nc1ccc2c(c1)C(=O)C(=O)c1ccccc1-2 [Compound 1.004, N-(9,10-dioxo-9,10-dihydrophenanthren-2-yl)-3,3-dimethylbutanamide]
- CD90 effect (relative expansive effect of CD90+ cells) ([1]; 0.125 μM sample compound): ++ (0.2 ≤ x < 0.55)
- CD133 effect (relative expansive effect of CD133+ cells) ([1]; 0.125 μM sample compound): + (x < 0.2)

Structure (SMILES): CCCCCCCCCC(=O)Nc1ccc2c(c1)C(=O)C(=O)c1ccccc1-2 [Compound 1.005, N-(9,10-dioxo-9,10-dihydrophenanthren-2-yl)decanamide]
- CD90 effect (relative expansive effect of CD90+ cells) ([1]; 2 μM sample compound): ++ (0.2 ≤ x < 0.55)
- CD133 effect (relative expansive effect of CD133+ cells) ([1]; 2 μM sample compound): + (x < 0.2)

Structure (SMILES): CC(=O)Nc1ccc2c(c1)C(=O)C(=O)c1ccccc1-2 [Compound 1.006, N-(9,10-dioxo-9,10-dihydrophenanthren-2-yl)acetamide]
- CD90 effect (relative expansive effect of CD90+ cells) ([1]; 0.5 μM sample compound): ++ (0.2 ≤ x < 0.55)
- CD133 effect (relative expansive effect of CD133+ cells) ([1]; 0.5 μM sample compound): + (x < 0.2)

Structure (SMILES): CC(C)(C)C(=O)Nc1ccc2c(c1)C(=O)C(=O)c1cc(N)ccc1-2 [Compound 1.007, N-(7-amino-9,10-dioxo-9,10-dihydrophenanthren-2-yl)pivalamide]
- CD90 effect (relative expansive effect of CD90+ cells) ([1]; 1 μM sample compound): ++ (0.2 ≤ x < 0.55)
- CD133 effect (relative expansive effect of CD133+ cells) ([1]; 1 μM sample compound): ++ (0.2 ≤ x < 0.55)

Structure (SMILES): CCC(C)(C)C(=O)Nc1ccc2c(c1)C(=O)C(=O)c1ccccc1-2 [Compound 1.008, N-(9,10-dioxo-9,10-dihydrophenanthren-2-yl)-2,2-dimethylbutanamide]
- CD90 effect (relative expansive effect of CD90+ cells) ([1]; 1 μM sample compound): ++ (0.2 ≤ x < 0.55)
- CD133 effect (relative expansive effect of CD133+ cells) ([1]; 1 μM sample compound): ++ (0.2 ≤ x < 0.55)

Structure (SMILES): O=C1C(=O)c2cc(NC(=O)C(Cl)(Cl)Cl)ccc2-c2ccccc21 [Compound 1.009, 2,2,2-trichloro-N-(9,10-dioxo-9,10-dihydrophenanthren-2-yl)acetamide]
- CD90 effect (relative expansive effect of CD90+ cells) ([1]; 0.5 μM sample compound): +++ (0.55 ≤ x < 0.9)
- CD133 effect (relative expansive effect of CD133+ cells) ([1]; 0.5 μM sample compound): ++ (0.2 ≤ x < 0.55)

Structure (SMILES): CCCC(C)(C)C(=O)Nc1ccc2c(c1)C(=O)C(=O)c1ccccc1-2 [Compound 1.010, N-(9,10-dioxo-9,10-dihydrophenanthren-2-yl)-2,2-dimethylpentanamide]
- CD90 effect (relative expansive effect of CD90+ cells) ([1]; 0.125 μM sample compound): +++ (0.55 ≤ x < 0.9)
- CD133 effect (relative expansive effect of CD133+ cells) ([1]; 0.125 μM sample compound): + (x < 0.2)

Structure (SMILES): O=C1C(=O)c2ccc(NC(=O)C(Cl)(Cl)Cl)cc2-c2ccccc21 [Compound 1.011, 2,2,2-trichloro-N-(9,10-dioxo-9,10-dihydrophenanthren-3-yl)acetamide]
- CD90 effect (relative expansive effect of CD90+ cells) ([1]; 0.25 μM sample compound): ++++ (0.9 ≤ x < 1.25)
- CD133 effect (relative expansive effect of CD133+ cells) ([1]; 0.25 μM sample compound): ++ (0.2 ≤ x < 0.55)

Structure (SMILES): CC(=O)Oc1c(OC(C)=O)c2cc(NC(=O)C(C)(C)C)ccc2c2ccccc12 [Compound 1.012, 2-pivalamidophenanthrene-9,10-diyl Diacetate]
- CD90 effect (relative expansive effect of CD90+ cells) ([1]; 0.5 μM sample compound): +++++ (1.25 ≤ x)
- CD133 effect (relative expansive effect of CD133+ cells) ([1]; 0.5 μM sample compound): ++++ (0.9 ≤ x < 1.25)

Structure (SMILES): COCCOc1c(O)c2cc(NC(=O)C(C)(C)C)ccc2c2ccccc12 [Compound 1.014, N-(10-hydroxy-9-(2-methoxyethoxy)phenanthren-2-yl)pivalamide]
- CD90 effect (relative expansive effect, relative cell number) [2, 3]: ++ (0.2 ≤ x < 0.55)
- CD133 effect (relative expansive effect, relative cell number) [2, 3]: ++ (0.2 ≤ x < 0.55)

Structure (SMILES): O=C(COCc1ccccc1)Nc1ccc2c(c1)C(=O)C(=O)c1ccccc1-2 [Compound 1.015, 2-(benzyloxy)-N-(9,10-dioxo-9,10-dihydrophenanthren-2-yl)acetamide]
- CD90 effect (relative expansive effect, relative cell number) [2, 4]: +++++ (1.25 ≤ x)
- CD133 effect (relative expansive effect, relative cell number) [2, 4]: +++ (0.55 ≤ x < 0.9)

Structure (SMILES): CC(C)(C)C(=O)Nc1ccc2c(c1)C(=O)C(=NO)c1ccccc1-2 [Compound 1.016, N-(9-(hydroxyimino)-10-oxo-9,10-dihydrophenanthren-2-yl)pivalamide]
- CD90 effect (relative expansive effect, relative cell number) [2, 5]: ++ (0.2 ≤ x < 0.55)
- CD133 effect (relative expansive effect, relative cell number) [2, 5]: ++ (0.2 ≤ x < 0.55)
